Source: US20080306124A1, “Polycyclic Oxadiazoles or I Soxazoles and Their Use as Sip Receptor Ligands” (priority 2005, published 2008)

Each compound was assayed against T1, S1P1 (EDG-1) receptor (Homo sapiens, UniProt P21453) (assay: S1P1 (EDG-1) GTP [γ-35S] binding assay, membranes from CHO cells). Settings: membranes of CHO cells expressing human EDG-1.
T1 construct: expressed in transfected cells
Assay type: biochemical
Method: A. In vitro: GPCR Activation Assay Measuring GTP [γ-^35S] Binding to Membranes Prepared from CHO Cells Expressing Human EDG Receptors
S1P1 (EDG-1) GTP [γ-^35S] binding assay: Homogenized membranes are prepared from CHO cell clones stably expressing a human EDG-1 N-terminal c-myc tag. Cells are grown in suspension in two 850 cm^2 roller bottles for three or fours days before harvesting. The cells are centrifuged down, washed once with cold PBS, and resuspended in ≦20 ml of Buffer A (20 mM HEPES, pH 7.4, […], EDTA-free complete protease inhibitor cocktail [1 tablet/25 ml]). The cell suspension is homogenized on ice, using a Polytron homogenizer at 30000 rpm at three intervals of 15 seconds each. The homogenate is first centrifuged at 2000 rpm on a tabletop low speed centrifuge for 10 minutes. The supernatant, after passing through a cell strainer, is then re-centrifuged at 50,000×g for 25 minutes at 4° C. The pellet is resuspended into buffer B (15% glycerol, 20 mM HEPES, pH 7.4, 0.1 mM EDTA, EDTA-free complete protease inhibitor cocktail [1 tablet/10 ml]). Protein concentration of the preparation is determined using the BCA Protein Assay kit (Pierce) using BSA as standard. The membranes are aliquoted and kept frozen at −80° C.
Solutions of test compounds ranging from 10 mM to 0.01 nM are prepared in DMSO. S1P is diluted in 4% BSA solution as positive controls. The desired amount of membrane preparation is diluted with ice-cold assay buffer (20 mM HEPES, pH 7.4, 100 mM NaCl, 10 mM MgCl2, 0.1% Fatty acid-free BSA, 5 μM GDP) and vortexed well. 2 μl or less of compound is distributed into each well of a round-bottom 96-well polystyrene assay plate, followed by addition of 100 µl of diluted membranes ([…]/well) and kept on ice until the addition of hot GTPγS. [^35S]-GTPγS is diluted 1:1000 (v/v) with cold assay buffer and 100 μl is added into each well. The reaction is carried out at room temperature for 90 minutes before the membranes are harvested onto Perkin-Elmer Unifilter® GF/B-96 filter plate using a Packard Filtermate Harvester. After several washes with wash buffer (20 mM HEPES, pH 7.4, 100 mM NaCl, 10 mM MgCl2), and a rinse with 95% ethanol, the filter is dried in a 37° C. oven for 30 minutes. MicroScint-20 is added and the plate sealed for scintillation counting on TopCount. EC50 values are obtained by fitting the GTP [γ-^35S] binding curves (raw data) with the dose response curve-fitting tool of GraphPad Prism. Six or twelve different concentrations are used to generate a concentration response curve (using three data points per concentration).

T1 sequence (P21453 whole entry): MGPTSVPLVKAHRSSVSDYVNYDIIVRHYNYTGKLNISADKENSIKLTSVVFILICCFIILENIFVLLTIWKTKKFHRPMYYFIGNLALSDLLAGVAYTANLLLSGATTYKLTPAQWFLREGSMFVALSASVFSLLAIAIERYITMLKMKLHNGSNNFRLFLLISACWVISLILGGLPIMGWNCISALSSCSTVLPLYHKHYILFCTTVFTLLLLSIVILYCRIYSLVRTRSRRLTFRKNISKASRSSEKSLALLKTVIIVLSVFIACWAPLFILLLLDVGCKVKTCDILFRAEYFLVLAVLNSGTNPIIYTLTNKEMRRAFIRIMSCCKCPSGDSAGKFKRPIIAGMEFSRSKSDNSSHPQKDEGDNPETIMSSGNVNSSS

EC50, < 1 nM:
NS(=O)(=O)c1ccc(-c2noc(-c3ccc(OC4CCCC4)c(C(F)(F)F)c3)n2)cc1 [Example 145]
CCc1cc(-c2noc(-c3ccc(C4CCCCC4)c(C(F)(F)F)c3)n2)ccc1S(N)(=O)=O [Example 196, 4-[5-(4-Cyclohexyl-3-trifluoromethyl-phenyl)-[1,2,4]oxadiazol-3-yl]-2-ethyl-benzenesulfonamide]
O=C(O)CCNS(=O)(=O)c1ccc(-c2noc(-c3ccc(Oc4cccc(F)c4)c(C(F)(F)F)c3)n2)cc1 [Example 54]
CCc1cc(-c2noc(-c3ccc(-c4ccccc4F)c(C(F)(F)F)c3)n2)ccc1S(N)(=O)=O [Example 194, 2-Ethyl-4-[5-(2′-fluoro-2-trifluoromethyl-biphenyl-4-yl)-[1,2,4]oxadiazol-3-yl]-benzenesulfonamide]
CCc1ccccc1-c1ccc(-c2nc(-c3ccc(S(=O)(=O)NCC(=O)O)cc3)no2)cc1C(F)(F)F [Example 45]
